Structures are written as SMILES. Where two headings read alike, the source gives them in different places.

The target of one assay is T1, GST-E6/His-E6AP (Human papillomavirus type 16, UniProt P03126).
T1 construct: made in house
As to the kind of experiment: AlphaScreen bead-based binding assay GST-E6/His-E6AP. On the set-up: species or system HPV 16. The following applies: for EC50 for GST-E6/His-E6AP interaction: bead-based assay, 1.4 μM–3.2 mM tested. How it is done:
(§1) Figure 2 3-(1H-indol-1yl)propan-1-amine (1), three benzimidazole derivatives (2–4), and spinacine (5) inhibit protein–protein interactions. Five compounds at the indicated concentrations (1.4 μM–3.2 mM) were tested using our bead-based screening assay for their ability to inhibit three different protein/protein interactions: (a) GST-E6/His-caspase 8; (b) GST-E6/HisE6AP; and (c) GST-caspase 8/His-caspase 8. Binding in the presence of 1.4 μM of the test compound was set at 100%. Experiments were performed in triplicate, and error bars indicate the S.D.
(§2) The construction of the pGEX-E6, pTriEx-E6AP, and pTriEx-Caspase-8 DED plasmids has been reported.[33] Expression and purification of GSTE6, His-E6AP, and His-Caspase-8 DED were carried out as previously described.[33], [37] GST-tagged and His-tagged proteins were diluted into GST dilution buffer (PBS pH 8.0, 5% glycerol, 2 mM DTT) and His dilution buffer (20 mM Hepes pH 7.4, 150 mM NaCl, 2 mMKCl, 5% glycerol, 2 mM DTT), respectively. Protein concentration was measured using Coomassie Plus – The Better Bradford Assay Reagent (Thermo Scientific, Waltham, MA, USA). Purity of the isolated proteins was estimated following separation by sodium dodecyl sulfate-polyacrylamide gel electrophoresis (SDS-PAGE) and Coomassie staining.
(§3) AlphaScreen Technology was used to assess the interactions between GST-E6, GST-caspase 8, His-E6AP, and His-caspase 8. Binding assays were performed in white 384-well plates (Perkin-Elmer) in a total volume of 25 μl as previously described.[33] Briefly, 5 μl (50 ng) of GST-E6 and 5 μl (87.5 ng) of His-caspase 8 were included in each reaction mixture with 5 μl blocking buffer (0.5 mg BSA, 0.5% Tween 20 in PBS) in the absence or presence of 10 μM of each test chemical. Members of the library were present at 10 μM in DMSO. After a 1-h incubation of the mixture at room temperature, 5 μl donor beads and 5 μl acceptor beads (Perkin-Elmer) were added to each well according to the manufacturer's protocol. The mixture was incubated in the dark at room temperature overnight, and the emitted signal was detected using the Envision Multilabel plate reader (Perkin-Elmer). In the presence of test chemicals, the binding affinity was calculated as a percentage of the binding in the presence of carrier only (DMSO).

Another assay deals with T2, GST-E6/His-caspase 8 (Human papillomavirus type 16, UniProt P03126).
T2 construct: made in house
The experiment in a line: AlphaScreen bead-based binding assay GST-E6/His-caspase 8. The arrangement: species or system HPV 16. To be noted: for EC50 for GST-E6/His-caspase 8 interaction: bead-based assay, 1.4 μM–3.2 mM tested. The protocol: as §1, §2, §3

In assay [1] the target is GST-caspase 8/His-caspase 8 (Homo sapiens, UniProt Q14790). The experiment in a line: AlphaScreen counter-screen GST-caspase 8/His-caspase 8. It is filed as binding. How it is done: as §1
To ask whether this inhibition was specific, we employed a counter-screening assay in which we assessed the ability of candidates to inhibit the binding of GST-caspase 8 to His-caspase 8; those that did were to be eliminated. In this counter-screening assay, the materials in each well were the same as in the primary screen, with the exception that GST-caspase 8 replaced GST-E6.
as §3

The test system of a further assay is SiHa cells. As to the kind of experiment: TRAIL-induced apoptosis in SiHa cells (MTT). It is filed as cell-based, human. The following applies: SiHa cells, compound 4 h prior to TRAIL 100 ng/ml + cycloheximide 5 μg/ml, overnight, MTT. The protocol:
Figure 3 (a) HPV^+ SiHa cells are resistant to TRAIL-induced apoptosis as compared with the human osteosarcoma cell line U2OS. Cells (2 × 10^4 cells per well) were seeded into a 96-well plate, allowed to incubate overnight, and then treated with the indicated concentration of TRAIL in the presence of cycloheximide (5 μg/ml). The viability of cells was measured after overnight incubation using the MTT assay; the viability of cells untreated with TRAIL was set at 100% for each group. (b) The indicated concentrations of three small molecules were added to SiHa cells, and an MTT assay was preformed after overnight incubation. The viability of cells untreated with small molecules was set as 100%. (c) The indicated concentrations of myricetin or spinacine were added 4 h prior to TRAIL (100 ng/ml) in the presence of cycloheximide (5 μg/ml) and incubated at 37 °C overnight. The viability of cells untreated with small molecules was set at 100%. (d and e) SiHa cells (2 × 10^4 cells per well) were seeded into a 96-well plate and allowed to incubate overnight. In all, 100 μM of myricetin and 50 μM of spinacine were added 4 h prior to either (d) doxorubicin or (e) cisplatin. Cell viability was measured after overnight incubation using the MTT assay, and the viability of cells untreated with either myricetin or spinacine was set at 100%. Experiments were performed in triplicate, and error bars indicate the S.D.
Figure 5 Myricetin and spinacine (5) can re-sensitize HPV^+, but not HPV^−, cells to treatment with TRAIL. SiHa (2 × 10^4 cells per well) and C33A cells (1 × 10^4 cells per well) were seeded into a 96-well plate and allowed to incubate overnight, and then cells were pretreated in the presence or absence of (a) myricetin (100 μM) or (b) spinacine (50 μM) for 4 h. The indicated concentration of TRAIL along with cycloheximide (5 μg/ml) was added, and the cells were allowed to incubate overnight. Cell viability was measured by MTT assay, and the viability of cells untreated with TRAIL was set at 100%. Experiments were performed in triplicate, and error bars indicate the S.D.
The extracellular domain of human TRAIL was cloned into a pTriEx expression plasmid containing N-terminal Hisx6 tag. His-TRAIL was expressed in the E. coli BL-21 pLys strain and purified as previously described. Doxorubicin and cisplatin were purchased from Sigma. His-TRAIL, doxorubicin, and cisplatin were diluted in PBS to the desired concentration before using. To measure cell survival following treatment with TRAIL, cisplatin and doxorubicin, SiHa (2 × 10^4/well), C33A (1 × 10^4/well), and HNSCC cells (2 × 10^4/well) were seeded into 96-well plates and allowed to adhere overnight. Small molecules at the desired concentration were added and incubated at 37 °C for 4 h. As indicated, TRAIL, cisplatin, or doxorubicin was then added. The TRAIL treatment group contained cycloheximide (5 μg/ml) to inhibit de novo protein synthesis, and the cells were incubated for 16 h prior to measuring cell viability by the MTT assay preformed as described previously.[38] All experiments were repeated at least three times (three biological replicates, carried out on different days), with each experimental group measured in triplicate within each of these individual experiments. Data presented are from a representative experiment.

[2] abbreviates: counter-screen, bead-based assay, 1.4 μM–3.2 mM tested.

Sequence of GST-caspase 8/His-caspase 8 (Q14790 1-184): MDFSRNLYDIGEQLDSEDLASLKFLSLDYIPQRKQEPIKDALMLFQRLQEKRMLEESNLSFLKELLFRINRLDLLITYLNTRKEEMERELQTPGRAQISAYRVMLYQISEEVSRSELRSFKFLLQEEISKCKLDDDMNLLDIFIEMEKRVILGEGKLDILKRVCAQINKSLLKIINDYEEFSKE
T2 sequence (P03126 whole entry): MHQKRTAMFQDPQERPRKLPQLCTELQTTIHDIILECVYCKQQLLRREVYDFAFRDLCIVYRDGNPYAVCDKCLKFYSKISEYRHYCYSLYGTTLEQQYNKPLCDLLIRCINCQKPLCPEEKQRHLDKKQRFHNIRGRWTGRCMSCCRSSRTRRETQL
T1 sequence (P03126 whole entry): as above

`NCCCn1ccc2ccccc21` [compound 1, 3-(1H-indol-1-yl)propan-1-amine methanesulfonate]: the EC50 was 670 µM at GST-E6/His-E6AP; 630 µM at GST-E6/His-caspase 8; 830 µM in assay [1] (counter-screen, bead-based assay, 1.4 μM–3.2 mM tested, read-out: EC50 for GST-caspase 8/His-caspase 8 interaction).

Take `c1ccc2[nH]cnc2c1` [compound 2, benzimidazole]: the EC50 at GST-E6/His-E6AP was 1480 µM; at GST-E6/His-caspase 8, 1040 µM; in assay [1], 1050 µM.

For `OCn1cnc2ccccc21` [compound 3, 1H-benzimidazole-1-methanol], the “EC50 for GST-E6/His-E6AP interaction” value on GST-E6/His-E6AP is reported as “No Inhibition”. In addition, the “EC50 for GST-E6/His-caspase 8 interaction” value on GST-E6/His-caspase 8 is “No Inhibition”. Further, the “EC50 for GST-caspase 8/His-caspase 8 interaction” value in assay [1] (setting [2]) is listed as “No Inhibition”. In the assay with SiHa cells, the “EC50 for TRAIL-induced apoptosis” value was “No sensitization”.

Consider `COCc1nc2ccccc2[nH]1` [compound 4, 2-(methoxymethyl)-1H-benzimidazole], for which the “EC50 for GST-E6/His-E6AP interaction” value on GST-E6/His-E6AP was “No inhibition”. Further, the “EC50 for GST-E6/His-caspase 8 interaction” value at GST-E6/His-caspase 8 is “No inhibition”. The “EC50 for GST-caspase 8/His-caspase 8 interaction” value in assay [1] (setting [2]) was “No inhibition”.

The values above are taken from publication PMC5154303, “Flavonol and imidazole derivatives block HPV16 E6 activities and reactivate apoptotic pathways in HPV^+ cells” (Cell Death & Disease, 2016).
